Test results from article PMC9697519, “New Theonellapeptolides from Indonesian Marine Sponge Theonella swinhoei as Anti-Austerity Agents” (Marine Drugs, 2022).
Where a SMILES comes first, the peptide text is derived from it. Bridges are numbered along the chain shown (N, C = ends). [ ]: non-standard residue; d: D form. The star is where a group is joined. dNMeaIle = CC[C@H](C)[C@@H](NC)C(=O)O; d(aIle) = CC[C@H](C)[C@@H](N)C(=O)O; NMeI = CC[C@H](C)[C@H](NC)C(=O)O; dNMeL = CN[C@H](CC(C)C)C(=O)O; NMeV = CN[C@H](C(=O)O)C(C)C; Methoxyacetyl = COCC(=O)*; βAla = NCCC(=O)O

Assays:
[1] = system: Bacillus cereus NBRC 15305; conditions: NBRC 15305, 22 h
Protocol: (§1) Previously, three theonellapeptolide members capped with a unique acyl group at their N-termini such as methylsulfinylacetyl, methylsulfanylacetyl, and acetyl were isolated by Tsuda et al. from Okinawan marine sponge Theonella sp.. Furthermore, the antibacterial activity of these variants was evaluated against four bacterial and six fungal strains. […] To the best of our knowledge, there is no report on the antibacterial activity of theonellapeptolides with methoxyacetyl group. This encouraged us to investigate the antibacterial activity of 1–6 against the Gram-negative bacterium Escherichia coli JW5503 and the Gram-positive bacteria Bacillus cereus NBRC 15305 and Kocuria rhizophila NBRC 12708.
(§2) After incubation for 22 h (30 °C), the obtained optical density was recorded using Tecan infinite® M200 plate reader at 600 nm to determine percent growth inhibition.

[2] = system: Kocuria rhizophila NBRC 12708; conditions: NBRC 12708, 22 h
Protocol: as §1, §2

[3] = system: Escherichia coli JW5503; conditions: JW5503, 22 h
Protocol: as §1, §2

[4] = system: MIA PaCa-2 cells; assay: Time-lapse live imaging under NDM; assay type: cell-based, human; conditions: 10 μM in NDM, 37 °C, 5% CO2, imaged 24 h
Protocol: Thus, more detailed studies were performed on the major compound theonellapeptolide IId (4). Its effect on morphology status of MIA PaCa-2 cells under starvation condition was studied using a double-staining assay with EB (ethidium bromide) and AO (acridine orange). The membranes of dead or dying cells are penetrated by EB and staining in red while living cells are stained by AO, a cell-membrane-permeable dye emitting bright green fluorescence. Both AO and EB stains are known as DNA-intercalating agents. During cell death, EB and AO enter into the cell after the integrity of the cell membrane is disrupted, which facilitates the emission of orange fluorescence. In this study, MIA PaCa-2 cells treated with 5 and 10 μM of theonellapeptolide IId (4) were incubated in starvation condition (NDM) for 24 h, and stained with the EB and AO dyes. In Figure 6A, treatment with 4 led to a dose-dependent increase in EB-stained cells emitting red fluorescence and showing drastic alteration of cell morphology. […] To show the details of cell death in real time, live evidence of the anticancer potential of 4 was studied. A time-lapse live imaging anti-pancreatic cancer experiment under NDM condition was performed for the first time in a multi position in the dish, for monitoring the effect of 4. Moreover, MIA PaCa-2 cells were treated with 10 μM of compound 4 in NDM and incubated at 37 °C at 5% CO2. Real-time anti-austerity potential tracking of 4 showing morphological changes in MIA PaCa-2 cells under NDM was monitored using a Nikon sCMOS camera oxford instrument, Hamamatsu Photonics/Ti-E, for 24 h. Images were captured every 10 min by rotating at several fixed positions in the dish under the phase contrast mode on a CCD Camera imaging system for 24 h. Treatment with 4 under NDM inhibited cell mobility immediately within 60 min and altered morphology of MIA PaCa-2 cells after 4 h was observed, then cell death started after 8 h, finally in 12 h complete cell death was observed (Figure 7, Movies S1 and S2, Supporting Information). In the control, MIA PaCa-2 cells survived 24 h until the end of the experiment in the NDM (Figure 7). Thus, the result of this study provided the first simultaneous multi-site live evidence of the anti-pancreatic cancer therapeutic potential of the compound theonellapeptolide IId (4) against MIA PaCa-2 cells as marine-based anti-austerity agents. […]
Real-time anti-austerity potential tracking anti-pancreatic cancer activity of 4 by showing morphological changes in MIA PaCa-2 cells under NDM was monitored using a Nikon sCMOS camera Oxford instrument, Hamamatsu Photonics/Ti-E, for 24 h. […]

[5] = system: MIA PaCa-2 cells; assay: Colony formation assay; assay type: cell-based, human; conditions: then fresh DMEM 10 days, 500 cells/well, three replicates
Protocol: Figure 6 (A) Morphological changes of MIA PaCa-2 cells induced by 4 in a nutrient-deprived medium (NDM). MIA PaCa-2 tumor cells were treated with 4 at the indicated concentrations in NDM in a 24-well plate and incubated for 24 h. The cells were stained with ethidium bromide (EB) and acridine orange (AO), and photographed in the fluorescence (red and green) under phase contrast modes using a Nikon sCMOS camera oxford instrument, Hamamatsu Photonics/Ti-E. (B) Structure of bioactive compound 4. (C) Effect of 4 on colony formation by MIA PaCa-2 cells in DMEM. (a) Graph showing the average values of the area occupied by MIA PaCa-2 cell colonies (three replicates). **** p < 0.0001 compared to the untreated control group. (b) Representative wells showing colonies of MIA PaCa-2 cells.
Pancreatic cancer cells have a great ability to migrate to surrounding tissues, growing and forming new colonies after metastasis in distant organs with sufficient nutrition. These processes are responsible for the majority of deaths from pancreatic cancer. The phenomenon is called “colonization”, and occurs during cancer metastasis. Migrating pancreatic cancer cells are likely to form small colonies (micrometastases), which then become large tumors. The discovery of potential inhibitors of the colony-forming ability of pancreatic cancer represents a promising approach to prevent pancreatic tumor metastasis. […] Therefore, theonellapeptolides isolated from marine origin were studied for their ability to inhibit MIA PaCa-2 colony formation. MIA PaCa-2 cells (500 cells/well) were placed in a 24-well plate and treated with 4 at 12.5, 25, and 50 μM (non-cytotoxic concentrations) in DMEM for 24 h.
Subsequently, the medium was replaced with fresh DMEM, and the cells were allowed to grow as colonies for 10 days in a humified CO2 incubator at 37 °C. […]
Colony Formation inhibitory effect of 4 at different concentrations against MIA PaCa-2 cells was determined as described previously.

## CC[C@H](C)[C@H]1C(=O)NCCC(=O)N[C@H]([C@@H](C)CC)C(=O)N(C)[C@@H](C(C)C)C(=O)N[C@@H](C)C(=O)NCCC(=O)N[C@H](CC(C)C)C(=O)N(C)[C@H]([C@@H](C)CC)C(=O)O[C@H](C)[C@H](NC(=O)[C@@H](CC(C)C)N(C)C(=O)[C@@H](NC(=O)COC)C(C)C)C(=O)NCCC(=O)N[C@H](CC(C)C)C(=O)N1C [Compound 4, theonellapeptolide IId] (Methoxyacetyl-V[dNMeL]T[βAla][dL][NMeI][βAla][d(aIle)][NMeV]A[βAla][dL][dNMeaIle]; ester 3-C)
[1]
  MIC, BC: > 66 µM
[2]
  MIC, KR: > 66 µM
[3]
  MIC, EC: > 66 µM
[4]
  time after which altered cell morphology was observed: 4 h
  time after which cell death started: 8 h
  time to complete cell death: 12 h
  time to inhibition of cell mobility: ≤ 60 min
[5]; 12.5 μM in DMEM for 24 h
  total well area occupied by colonies: 100%
[5]; 25 μM in DMEM for 24 h
  colony formation: total inhibition of colony formation
[5]; 50 μM in DMEM for 24 h
  colony formation: total inhibition of colony formation
